Among the data in PubChem BioAssay (NCI) are TGI and GI50 values, retold here.

Common to all, as to assay: DTP human tumour cell line panel, 48 h
For experiment [1], the system named is UACC-257 melanoma.
Experiment [2] concerns HOP-92 NSCLC.
Experiment [3] deals with SW-620 colon.
The subject of experiment [4] is IGROV1 ovarian.
Experiment [5] relates to SK-MEL-5 melanoma.
Experiment [6] concerns MOLT-4 leukemia.
The subject of experiment [7] is LOX IMVI melanoma.
For experiment [8], the system named is SF-295 CNS.
The subject of experiment [9] is CAKI-1 renal.
Experiment [10] has as its system OVCAR-5 ovarian.

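Briefly, cells in 96-well plates were exposed to five compound concentrations for 48 h, and endpoints were estimated by linear interpolation. At the GI50, growth is halved. The concentration for full growth arrest is given as TGI.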

On to `COC(=O)c1cc2c3ccccc3n(C(C)=O)c2cn1`, for which the TGI in experiment [1], in [2], in [3], in experiment [4], in [5] and in experiment [6] was > 100 µM in each case. Besides, the TGI in experiment [7] was > 100 µM; in experiment [8] it was > 100 µM; in experiment [9], 48.9 µM; in [10] it was > 100 µM.
With `O=C1NC(=Nc2ccccc2)S/C1=C\c1ccc2ncccc2c1`, the GI50 is > 25 µM in experiment [1]; > 25 µM in experiment [2]; 0.965 µM in [3]; > 7.5 µM in experiment [4]; > 25 µM in [5]; > 25 µM in experiment [6]. The GI50 in experiment [7], in experiment [9] and in experiment [10] was > 25 µM throughout. Further, the TGI in experiment [1], in [2], in [3], in [4], in [5] and in [6] was > 25 µM each time. The TGI in experiment [7] is > 25 µM; in experiment [8] it was > 7.02 µM; in [9], > 25 µM; in experiment [10], > 25 µM.
Consider `O=C1c2ccccc2C(=O)C1(Cl)C1(S(=O)(=O)O)c2ccccc2-c2ccccc21`, for which the TGI in [1], in experiment [2], in experiment [3], in experiment [4], in experiment [5] and in experiment [6] was > 100 µM throughout. Also, the TGI in experiment [7], in experiment [8], in experiment [9] and in experiment [10] was > 100 µM each time.
With `Cc1ccc(SC(C)/C=C/NNC2=NC(c3ccccc3)C(c3ccccc3)=NN2)cc1` (centres undefined), the TGI in [1] is > 100 µM; in experiment [2], 66.1 µM; in experiment [3], > 100 µM; in [4], > 100 µM; in experiment [5], 31.4 µM; in experiment [6], > 100 µM. The TGI in experiment [7] was > 100 µM; in experiment [8] it was > 100 µM; in [9] it was 46.6 µM; in experiment [10], 89.1 µM.
Regarding `Cn1c(=O)c2c(nc(Nc3cc(=O)[nH]c(=O)[nH]3)n2Cc2ccccc2)n(C)c1=O`, the GI50 was > 100 µM in experiment [1]; 7.51 µM in [2]; > 100 µM in experiment [3]; > 100 µM in experiment [4]; 48 µM in [5]; > 100 µM in [6]. The GI50 was > 100 µM in experiment [7], > 100 µM in experiment [8], 50.1 µM in experiment [9] and > 100 µM in [10]. Besides, the TGI in [1], in experiment [2], in experiment [3], in experiment [4], in experiment [5] and in experiment [6] was > 100 µM each time. Moreover, the TGI in experiment [7], in [8], in experiment [9] and in experiment [10] was > 100 µM in each case.
As for `COC(=O)C(C(=O)C(=O)Nc1cccc(OC)c1)c1cnc2ccccc2n1` (centres undefined), the TGI in [1], in experiment [2], in experiment [3], in experiment [4], in experiment [5] and in experiment [6] was > 100 µM throughout. Also, the TGI in experiment [7], in experiment [8], in experiment [9] and in experiment [10] was > 100 µM throughout.
Turning to `Cn1cc(C2=C(c3ccc4ccccc4c3)C(=O)NC2=O)c2ccccc21`, the GI50 in experiment [1] is > 25 µM; in [2] it was > 25 µM; in experiment [3], 8.28 µM; in experiment [4], > 19.5 µM; in experiment [5], > 25 µM; in experiment [6] it was > 20.1 µM. The GI50 in [7] is > 25 µM; in experiment [8], > 23.5 µM; in experiment [9], > 16.7 µM; in experiment [10], > 25 µM. The TGI in experiment [1], in [2], in experiment [3], in experiment [4], in [5] and in experiment [6] was > 25 µM in each case. The TGI in [7], in experiment [8], in experiment [9] and in [10] was > 25 µM throughout.
With `CCCCOC(=O)C1C(c2ccc(Cl)cc2)NC(c2ccc(Cl)cc2)C(C(=O)OCCCC)S1(=O)=O` (centres undefined), the TGI in [1], in experiment [2], in experiment [3], in [4], in experiment [5] and in experiment [6] was > 100 µM throughout. The TGI in experiment [7], in experiment [8], in experiment [9] and in [10] was > 100 µM throughout.
